Assays:
Format in all cases: biochemical
HDAC1 = biological target: T1, HDAC1 (Homo sapiens, UniProt Q13547); assay: HDAC Inhibition Screening Assay (FLUOR DE LYS Fluorimetric Drug Discovery Kit), HDAC1; settings: for inhibition at 2 µM: 2 μM compound; for inhibition at 10 µM: 10 μM compound; for inhibition at 50 µM: 50 μM compound
T1 construct: purchased Enzo Life Sciences
Summary of the method: (§1)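 Compounds at 2 μM, 10 μM and 50 μM were each tested against HDAC1, HDAC2 and HDAC3 using a two-step fluorimetric assay. Results are given as percent of basal control after baseline subtraction.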

ATX (autotaxin) = biological target: T2, ATX (autotaxin) (Homo sapiens, UniProt Q13822); assay: Autotaxin Inhibition Screening Assay (choline release from LPC, LPC-CR); settings: for inhibition at 4 µM: 4 μM compound; for inhibition at 20 µM: 20 μM compound; for inhibition at 50 µM: 50 μM compound
T2 construct: purchased Cayman 10803
Summary of the method: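 Released choline from 100 μM 14:0 LPC, detected via choline oxidase–HRP–homovanillic acid fluorescence (320/450 nm) kinetically over 90 min, reports activity of 20 ng ATX. Buffer: 50 mM Tris pH 8.0, 50 mM CaCl2, 0.01% Triton X-100; test compounds 4, 20, 50 μM; percent inhibition from blank-subtracted slopes relative to vehicle.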

HDAC3 = biological target: T3, HDAC3 (Homo sapiens, UniProt O15379); assay: HDAC Inhibition Screening Assay (FLUOR DE LYS Fluorimetric Drug Discovery Kit), HDAC3; settings: for inhibition at 2 µM: 2 μM compound; for inhibition at 10 µM: 10 μM compound; for inhibition at 50 µM: 50 μM compound
T3 construct: purchased Enzo Life Sciences
T3 sequence (O15379 whole entry): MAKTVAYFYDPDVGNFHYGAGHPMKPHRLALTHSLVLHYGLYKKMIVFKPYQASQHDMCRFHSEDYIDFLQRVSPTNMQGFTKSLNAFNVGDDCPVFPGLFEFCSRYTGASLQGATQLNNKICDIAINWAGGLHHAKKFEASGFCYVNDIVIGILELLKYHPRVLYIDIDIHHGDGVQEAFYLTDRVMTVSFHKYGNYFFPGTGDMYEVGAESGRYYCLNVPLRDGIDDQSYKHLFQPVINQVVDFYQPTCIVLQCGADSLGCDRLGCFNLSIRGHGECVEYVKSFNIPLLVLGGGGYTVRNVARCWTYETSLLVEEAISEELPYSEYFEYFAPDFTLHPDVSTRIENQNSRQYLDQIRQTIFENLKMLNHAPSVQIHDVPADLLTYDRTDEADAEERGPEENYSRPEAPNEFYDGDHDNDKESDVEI
T3 sequence (O75376 395-489 partner limits assumed): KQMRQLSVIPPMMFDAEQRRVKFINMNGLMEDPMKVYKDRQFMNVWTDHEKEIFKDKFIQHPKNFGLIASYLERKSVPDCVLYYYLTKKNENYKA
Summary of the method: as §1

HDAC2 = biological target: T4, HDAC2 (Homo sapiens, UniProt Q92769); assay: HDAC Inhibition Screening Assay (FLUOR DE LYS Fluorimetric Drug Discovery Kit), HDAC2; settings: for inhibition at 2 µM: 2 μM compound; for inhibition at 10 µM: 10 μM compound; for inhibition at 50 µM: 50 μM compound
T4 construct: purchased Enzo Life Sciences
T4 sequence (Q92769 whole entry): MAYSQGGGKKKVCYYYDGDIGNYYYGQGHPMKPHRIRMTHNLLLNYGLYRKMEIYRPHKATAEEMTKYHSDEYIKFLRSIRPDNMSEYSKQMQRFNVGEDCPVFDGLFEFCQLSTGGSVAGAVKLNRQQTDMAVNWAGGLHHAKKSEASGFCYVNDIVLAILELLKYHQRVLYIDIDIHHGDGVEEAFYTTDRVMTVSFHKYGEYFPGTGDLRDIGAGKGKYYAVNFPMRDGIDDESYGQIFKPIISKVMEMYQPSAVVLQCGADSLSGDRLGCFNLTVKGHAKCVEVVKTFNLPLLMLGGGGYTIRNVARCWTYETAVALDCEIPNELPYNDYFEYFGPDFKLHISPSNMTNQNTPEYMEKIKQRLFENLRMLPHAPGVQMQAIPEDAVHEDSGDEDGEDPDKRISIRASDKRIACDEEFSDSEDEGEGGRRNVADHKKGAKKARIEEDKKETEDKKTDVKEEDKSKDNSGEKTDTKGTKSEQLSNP
Summary of the method: as §1

T1 sequence (Q13547 whole entry): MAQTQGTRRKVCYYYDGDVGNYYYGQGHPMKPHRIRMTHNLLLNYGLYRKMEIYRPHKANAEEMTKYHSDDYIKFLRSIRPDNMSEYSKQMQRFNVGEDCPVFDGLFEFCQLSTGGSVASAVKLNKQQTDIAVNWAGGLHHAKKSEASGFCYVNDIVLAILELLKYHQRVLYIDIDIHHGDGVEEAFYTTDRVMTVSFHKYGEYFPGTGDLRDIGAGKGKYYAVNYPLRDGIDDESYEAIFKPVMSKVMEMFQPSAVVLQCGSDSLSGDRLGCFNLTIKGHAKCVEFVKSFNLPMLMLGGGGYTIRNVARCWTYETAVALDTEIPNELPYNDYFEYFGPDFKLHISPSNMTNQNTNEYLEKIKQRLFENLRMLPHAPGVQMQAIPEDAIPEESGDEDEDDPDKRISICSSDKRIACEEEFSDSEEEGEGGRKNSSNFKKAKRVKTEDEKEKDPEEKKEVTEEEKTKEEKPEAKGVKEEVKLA

inhibition at 2 µM (HDAC1)	inhibition at 10 µM (HDAC1)	inhibition at 50 µM (HDAC1)	inhibition at 4 µM (ATX (autotaxin))	inhibition at 20 µM (ATX (autotaxin))	inhibition at 50 µM (ATX (autotaxin))	inhibition at 2 µM (HDAC3)	inhibition at 10 µM (HDAC3)	inhibition at 50 µM (HDAC3)	inhibition at 2 µM (HDAC2)	inhibition at 10 µM (HDAC2)	inhibition at 50 µM (HDAC2)	Compound
< 50%	< 50%	< 50%	< 50%	< 50%	< 50%	< 50%	50 to 80%	50 to 80%	< 50%	< 50%	< 50%	Nc1cc(F)ccc1NC(=O)CCCCCCC(=O)NC1CCc2cc(Br)ccc21 (stereo not drawn) [Compound 39, N^1-(2-amino-4-fluorophenyl)-N8-(5-bromo-2,3-dihydro-1H-inden-1-yl)octanediamide]
50 to 80%	> 80%	> 80%	< 50%	< 50%	< 50%	> 80%	> 80%	> 80%	> 80%	> 80%	> 80%	O=C(CCCCCCC(=O)NC1CCc2cc(Br)ccc21)NO (stereo not drawn) [Compound 40, N1-(5-bromo-2,3-dihydro-1H-inden-1-yl)-N8-hydroxyoctanediamide]
< 50%	< 50%	< 50%	< 50%	< 50%	< 50%	< 50%	< 50%	< 50%	< 50%	< 50%	< 50%	Nc1cc(F)ccc1NC(=O)CCCCCCC(=O)NC1CCc2cc(/C=C/C(=O)Nc3cc(Cl)cc(Cl)c3)ccc21 (stereo not drawn) [Compound 41]
< 50%	50 to 80%	> 80%	< 50%	< 50%	> 80%	50 to 80%	> 80%	50 to 80%	50 to 80%	50 to 80%	> 80%	O=C(/C=C/c1ccc2c(c1)CCC2NC(=O)CCCCCCC(=O)NO)Nc1cc(Cl)cc(Cl)c1 (stereo not drawn) [Compound 42, (E)-N^1-(5-(3-((3,5-dichlorophenyl)amino)-3-oxoprop-1-en-1-yl)-2,3-dihydro-1H-inden-1-yl)-N^8-hydroxyoctanediamide]
< 50%	< 50%	< 50%	< 50%	< 50%	< 50%	< 50%	50 to 80%	50 to 80%	< 50%	< 50%	50 to 80%	COc1ccc2c(c1)CCC2NC(=O)CCCCCCC(=O)Nc1ccc(F)cc1N (stereo not drawn) [Compound 43, N1-(2-amino-4-fluorophenyl)-N8-(5-methoxy-2,3-dihydro-1H-inden-1-yl)octanediamide]
50 to 80%	> 80%	> 80%	< 50%	< 50%	< 50%	50 to 80%	> 80%	> 80%	50 to 80%	> 80%	> 80%	COc1ccc2c(c1)CCC2NC(=O)CCCCCCC(=O)NO (stereo not drawn) [Compound 44]

Continued, compound first:

Compound	inhibition at 2 µM (HDAC1)	inhibition at 10 µM (HDAC1)	inhibition at 50 µM (HDAC1)	inhibition at 4 µM (ATX (autotaxin))	inhibition at 20 µM (ATX (autotaxin))	inhibition at 50 µM (ATX (autotaxin))	inhibition at 2 µM (HDAC3)	inhibition at 10 µM (HDAC3)	inhibition at 50 µM (HDAC3)	inhibition at 2 µM (HDAC2)	inhibition at 10 µM (HDAC2)	inhibition at 50 µM (HDAC2)
O=C(/C=C/c1ccc2c(c1)CCC2NCc1cc(C(F)(F)F)cc(C(F)(F)F)c1)NO (stereo not drawn) [Compound 33, (E)-3-(1-((3,5-bis(trifluoromethyl)benzyl)amino)-2,3-dihydro-1H-inden-5-yl)-N-hydroxyacrylamide]	50 to 80%	> 80%	> 80%	< 50%	< 50%	< 50%	50 to 80%	> 80%	> 80%	50 to 80%	> 80%	> 80%
O=C(/C=C/c1ccc2c(c1)CCC2OCc1cc(C(F)(F)F)cc(C(F)(F)F)c1)NO (stereo not drawn) [Compound 34, (E)-3-(1-((3,5-bis(trifluoromethyl)benzyl)oxy)-2,3-dihydro-1H-inden-5-yl)-N-hydroxyacrylamide]	< 50%	> 80%	> 80%	< 50%	< 50%	< 50%	< 50%	50 to 80%	> 80%	50 to 80%	> 80%	> 80%
Nc1cc(F)ccc1NC(=O)/C=C/c1ccc2c(c1)CCCC2OCc1cc(C(F)(F)F)cc(C(F)(F)F)c1 (stereo not drawn) [Compound 35, (E)-N-(2-amino-4-fluorophenyl)-3-(5-((3,5-bis(trifluoromethyl)benzyl)oxy)-5,6,7,8-tetrahydronaphthalen-2-yl)acrylamide]	< 50%	< 50%	< 50%	< 50%	< 50%	< 50%	< 50%	< 50%	50 to 80%	< 50%	< 50%	< 50%
O=C(/C=C/c1ccc2c(c1)CCCC2OCc1cc(C(F)(F)F)cc(C(F)(F)F)c1)NO (stereo not drawn) [Compound 36, (E)-3-(5-((3,5-bis(trifluoromethyl)benzyl)oxy)-5,6,7,8-tetrahydronaphthalen-2-yl)-N-hydroxy acrylamide]	< 50%	> 80%	> 80%	< 50%	< 50%	< 50%	< 50%	50 to 80%	> 80%	50 to 80%	> 80%	> 80%
O=C(/C=C/c1ccc2c(c1)CCC2N1CC(=O)N(c2cc(Cl)cc(Cl)c2)C1=O)NO (stereo not drawn) [Compound 37, (E)-3-(1-(3-(3,5-dichlorophenyl)-2,4-dioxoimidazolidin-1-yl)-2,3-dihydro-1H-inden-5-yl)-N-hydroxyacrylamide]	> 80%	> 80%	> 80%	< 50%	< 50%	< 50%	> 80%	> 80%	> 80%	> 80%	> 80%	> 80%
COc1ccc(N2C(=O)CN(C3CCc4cc(/C=C/C(=O)NO)ccc43)C2=O)cc1 (stereo not drawn) [Compound 38, (E)-N-hydroxy-3-(1-(3-(4-methoxyphenyl)-2,4-dioxoimidazolidin-1-yl)-2,3-dihydro-1H-inden-5-yl)acrylamide]	> 80%	> 80%	> 80%	< 50%	< 50%	< 50%	> 80%	> 80%	> 80%	> 80%	> 80%	> 80%

From patent US12162820B2 (TAIWANJ PHARMACEUTICALS CO., LTD., priority 2019, dated 2024)
